The record followed here is patent publication US10143681B2, “Factor XIa inhibitors” (MERCK SHARP & DOHME CORP., priority 2016, dated 2018).

The target of one assay is human Factor XIa (Homo sapiens (Human), UniProt P03951). The assay can be described thus: Factor XIa Assay. It counts as biochemical. The following applies: human Factor XIa 0.04 nM, 30 min pre-incubation at 25° C., substrate GPR-AFC; read-out: FXIa IC50. In outline:
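IC50 values were obtained from four-parameter log(inhibitor)-response fits of % inhibition, then converted to Ki using Cheng-Prusoff. GPR-AFC hydrolysis was read at 400/505 nm after 60 min at 25 °C.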

The target of a further assay is Human plasma kallikrein (Homo sapiens (Human), UniProt P03952). The assay can be described thus: Kallikrein Assay. In kind it is biochemical. As to conditions: purified Human plasma kallikrein 0.5 nM, substrate Acetyl-K-P-R-AFC; read-out: P. KLK IC50. The method in brief:
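Purified human plasma kallikrein (0.5 nM final) with Acetyl-K-P-R-AFC substrate ([…]) in pH 7.4 HEPES/NaCl/CaCl2/PEG buffer, room temperature or 37 °C; fluorescence rise read at 405/510 nm under linear conditions after enzyme–inhibitor equilibration. IC50 from four-parameter logistic fit; Ki via Cheng–Prusoff.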

For assay [1], the system named is Human plasma (intrinsic coagulation cascade). The assay is described as follows: Activated Partial Thromboplastin Time (aPTT) Assay. As to conditions: concentration that causes a 50% (1.5×) increase of clot time over vehicle. The method in brief:
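Inhibitors spiked into pooled citrated normal-donor human plasma (aPTT 28-40 seconds), run on automated coagulation analyzer: ellagic acid activation of Factor XII, then clot time after recalcification. Reported as concentration giving 50% (1.5×) prolongation over vehicle clot time.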

Each structure is given as a SMILES string.

As usually defined, the IC50 is the concentration at which inhibition is half-maximal.

Human plasma kallikrein, sequence (P03952 391-638): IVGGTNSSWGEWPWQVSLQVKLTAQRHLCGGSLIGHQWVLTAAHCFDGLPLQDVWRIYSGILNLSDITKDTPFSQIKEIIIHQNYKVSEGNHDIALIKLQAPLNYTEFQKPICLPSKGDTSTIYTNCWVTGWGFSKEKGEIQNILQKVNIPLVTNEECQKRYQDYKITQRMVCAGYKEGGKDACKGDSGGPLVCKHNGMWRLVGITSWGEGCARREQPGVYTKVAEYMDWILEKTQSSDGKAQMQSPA
Human plasma kallikrein, sequence (P03952 20-390 partner): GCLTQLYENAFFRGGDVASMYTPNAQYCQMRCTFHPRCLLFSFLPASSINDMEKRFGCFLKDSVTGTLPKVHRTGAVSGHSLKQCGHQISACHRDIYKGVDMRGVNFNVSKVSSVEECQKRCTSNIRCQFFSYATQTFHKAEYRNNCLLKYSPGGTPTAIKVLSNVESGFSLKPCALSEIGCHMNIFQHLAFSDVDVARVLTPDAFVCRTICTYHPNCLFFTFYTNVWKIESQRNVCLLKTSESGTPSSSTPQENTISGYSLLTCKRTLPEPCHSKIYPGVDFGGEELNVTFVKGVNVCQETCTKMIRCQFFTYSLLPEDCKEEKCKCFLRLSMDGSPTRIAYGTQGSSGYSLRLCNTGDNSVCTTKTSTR
human Factor XIa, sequence (P03951 388-625): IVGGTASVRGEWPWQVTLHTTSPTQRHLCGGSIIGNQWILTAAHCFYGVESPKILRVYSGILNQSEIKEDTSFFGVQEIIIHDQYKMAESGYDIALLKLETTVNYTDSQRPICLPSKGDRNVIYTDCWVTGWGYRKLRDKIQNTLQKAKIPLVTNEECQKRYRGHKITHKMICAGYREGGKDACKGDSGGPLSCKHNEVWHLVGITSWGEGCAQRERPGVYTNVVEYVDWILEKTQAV
human Factor XIa, sequence (P03951 19-387 partner): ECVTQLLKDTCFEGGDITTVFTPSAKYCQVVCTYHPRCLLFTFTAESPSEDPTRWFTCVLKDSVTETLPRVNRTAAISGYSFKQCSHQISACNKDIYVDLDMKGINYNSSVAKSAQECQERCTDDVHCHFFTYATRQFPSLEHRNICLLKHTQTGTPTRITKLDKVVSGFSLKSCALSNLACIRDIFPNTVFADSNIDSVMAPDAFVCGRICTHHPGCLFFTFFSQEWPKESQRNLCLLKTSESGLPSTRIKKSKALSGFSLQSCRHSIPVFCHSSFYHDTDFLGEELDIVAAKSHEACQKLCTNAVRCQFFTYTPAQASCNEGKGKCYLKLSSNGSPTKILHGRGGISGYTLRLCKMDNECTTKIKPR

With `O=C(O)c1ccc(NC(=O)C(CC2CC2)c2ccc(-c3cc(Cl)ccc3C(F)F)c[n+]2[O-])cc1` (single isomer, unassigned) [Example 29, (R)- or (S)-2-(1-((4-carboxyphenyl)amino)-3-cyclopropyl-1-oxopropan-2-yl)-5-(5-chloro-2-(difluoromethyl)phenyl)pyridine 1-oxide], the IC50 on human Factor XIa amounted to 4.3 nM; on Human plasma kallikrein, 84 nM. In addition, in assay [1], the “aPTT (1.5x)” value is 2.07 µM.

`O=C(O)c1ccc(NC(=O)C(C[C@H]2CC[C@H](O)CC2)c2ccc(-c3c(C(F)F)ccc(Cl)c3F)c[n+]2[O-])cc1` (single isomer, unassigned) [Example 37, (R)- or (S)-2-(1-((4-carboxyphenyl)amino)-3-((1r,4r)-4-hydroxycyclohexyl)-1-oxopropan-2-yl)-5-(3-chloro-6-(difluoromethyl)-2-fluorophenyl)pyridine 1-oxide]: the IC50 on human Factor XIa was 0.33 nM; on Human plasma kallikrein, 5.7 nM. The “aPTT (1.5x)” value in assay [1] was determined as 0.4 µM.

As for `C[C@]1(O)CC[C@H](CC(C(=O)Nc2ccc(C(=O)O)cc2)c2ccc(-c3c(OC(F)F)ccc(Cl)c3F)c[n+]2[O-])CC1` (single isomer, unassigned) [Example 43, 2-(1-((4-carboxyphenyl)amino)-3-((1r,4r)-4-hydroxy-4-methylcyclohexyl)-1-oxopropan-2-yl)-5-(3-chloro-6-(difluoromethoxy)-2-fluorophenyl)pyridine 1-oxide], the IC50 on human Factor XIa was found to be 0.45 nM; at Human plasma kallikrein, 20 nM. Also, the “aPTT (1.5x)” value in assay [1] was 0.55 µM.

Regarding `C[C@]1(O)CC[C@@H](CC(C(=O)Nc2ccc(C(=O)O)cc2)c2ccc(-c3c(C(F)F)ccc(Cl)c3F)c[n+]2[O-])CC1` (single isomer, unassigned) [Example 45, 2-(1-((4-carboxyphenyl)amino)-3-((1s,4s)-4-hydroxy-4-methylcyclohexyl)-1-oxopropan-2-yl)-5-(3-chloro-6-(difluoromethyl)-2-fluorophenyl)pyridine 1-oxide], the IC50 on human Factor XIa came out at 2.7 nM; at Human plasma kallikrein, 12 nM. Further, in assay [1], the “aPTT (1.5x)” value came to 1.16 µM.

Turning to `C[C@]1(O)CC[C@H](CC(C(=O)Nc2ccc(C(=O)O)cc2)c2ccc(-c3c(C(F)F)ccc(Cl)c3F)c[n+]2[O-])CC1` (single isomer, unassigned) [Example 47, 2-(1-((4-carboxyphenyl)amino)-3-((1r,4r)-4-hydroxy-4-methylcyclohexyl)-1-oxopropan-2-yl)-5-(3-chloro-6-(difluoromethyl)-2-fluorophenyl)pyridine 1-oxide], the half-inhibitory concentration (IC50) is 0.56 nM at human Factor XIa and 20 nM at Human plasma kallikrein. Also, the “aPTT (1.5x)” value in assay [1] was 0.59 µM.

Consider `CC1CC1C[C@@H](C(=O)Nc1ccc(C(=O)O)cc1)c1ccc(-c2c(C(F)F)ccc(Cl)c2F)c[n+]1[O-]` (single isomer, unassigned) [Example 62], for which the IC50 on human Factor XIa is 0.21 nM; at Human plasma kallikrein it was 6.1 nM. For the same molecule, the “aPTT (1.5x)” value in assay [1] came out at 0.35 µM.

As to `CC1CC1C[C@@H](C(=O)Nc1ccc(C(=O)O)cc1)c1ccc(-c2c(C(F)F)ccc(Cl)c2F)c[n+]1[O-]` (single isomer, unassigned) [Example 63], the values for the IC50 at human Factor XIa and on Human plasma kallikrein were 0.19 nM and 2.9 nM, respectively. The “aPTT (1.5x)” value in assay [1] turned out to be 2.13 µM.

In the case of `CC1CC(CC(C(=O)Nc2ccc(C(=O)O)cc2)c2ccc(-c3c(C(F)(F)F)ccc(Cl)c3F)c[n+]2[O-])C1` (single isomer, unassigned) [Example 74, 2-(1-((4-carboxyphenyl)amino)-3-(3-methylcyclobutyl)-1-oxopropan-2-yl)-5-(3-chloro-2-fluoro-6-(trifluoromethyl)phenyl) pyridine 1-oxide], the figures for the IC50 at human Factor XIa and on Human plasma kallikrein were 1.3 nM and 19.2 nM, respectively. The “aPTT (1.5x)” value in assay [1] is 2.77 µM.

For the molecule `O=C(O)c1ccc(NC(=O)C(CC2CC(F)C2)c2ccc(-c3c(C(F)F)ccc(Cl)c3F)c[n+]2[O-])cc1` (single isomer, unassigned) [Example 81, 2-(1-((4-carboxyphenyl)amino)-3-(3-fluorocyclobutyl)-1-oxopropan-2-yl)-5-(3-chloro-6-(difluoromethyl)-2-fluorophenyl)pyridine-1-oxide], the IC50 at human Factor XIa is 1.2 nM; on Human plasma kallikrein, 8.4 nM. The “aPTT (1.5x)” value in assay [1] was 0.58 µM.

With `O=C(O)c1ccc(NC(=O)C(CC2CC2F)c2ccc(-c3c(C(F)F)ccc(Cl)c3F)c[n+]2[O-])cc1` (single isomer, unassigned) [Example 93, 2-(1-((4-carboxyphenyl)amino)-3-(2-fluorocyclopropyl)-1-oxopropan-2-yl)-5-(3-chloro-6-(difluoromethyl)-2-fluorophenyl)pyridine-1-oxide], the IC50 at human Factor XIa was 3.3 nM; on Human plasma kallikrein, 28 nM. Moreover, the “aPTT (1.5x)” value in assay [1] stood at 0.8 µM.

For `O=C(O)c1ccc(NC(=O)C(CC2CC2CF)c2ccc(-c3c(C(F)F)ccc(Cl)c3F)c[n+]2[O-])cc1` (single isomer, unassigned) [Example 94, 2-(1-((4-carboxyphenyl)amino)-3-(2-(fluoromethyl)cyclopropyl)-1-oxopropan-2-yl)-5-(3-chloro-6-(difluoromethyl)-2-fluorophenyl)pyridine 1-oxide], the 50% inhibitory concentration (IC50) on human Factor XIa came to 0.4 nM; on Human plasma kallikrein, 6 nM. The “aPTT (1.5x)” value in assay [1] came to 0.4 µM.

As to `O=C(O)c1ccc(NC(=O)C(CC2CC2CF)c2ccc(-c3c(C(F)F)ccc(Cl)c3F)c[n+]2[O-])cc1` (single isomer, unassigned) [Example 95, 2-(1-((4-carboxyphenyl)amino)-3-(2-(fluoromethyl)cyclopropyl)-1-oxopropan-2-yl)-5-(3-chloro-6-(difluoromethyl)-2-fluorophenyl)pyridine-1-oxide], the IC50 turned out to be 0.4 nM at human Factor XIa and 9.6 nM at Human plasma kallikrein. In assay [1], the “aPTT (1.5x)” value was 0.43 µM.

For the molecule `O=C(O)c1ccc(NC(=O)C(CC2CC2C(F)(F)F)c2ccc(-c3c(OC(F)F)ccc(Cl)c3F)c[n+]2[O-])cc1` (single isomer, unassigned) [Example 107, 2-(1-((4-carboxyphenyl)amino)-1-oxo-3-(2-(trifluoromethyl)cyclopropyl)propan-2-yl)-5-(3-chloro-6-(difluoromethoxy)-2-fluorophenyl)pyridine 1-oxide], the IC50 on human Factor XIa was found to be 3.2 nM; on Human plasma kallikrein, 24.2 nM. In assay [1], the “aPTT (1.5x)” value is 1.74 µM.

As to `O=C(O)c1ccc(NC(=O)C(CC2CC2C(F)(F)F)c2ccc(-c3c(OC(F)F)ccc(Cl)c3F)c[n+]2[O-])cc1` (single isomer, unassigned) [Example 109, 2-(1-((4-carboxyphenyl)amino)-1-oxo-3-(2-(trifluoromethyl)cyclopropyl)propan-2-yl)-5-(3-chloro-6-(difluoromethoxy)-2-fluorophenyl)pyridine 1-oxide], the results for the IC50 on human Factor XIa and at Human plasma kallikrein were 1.2 nM and 25.2 nM, respectively. Moreover, in assay [1], the “aPTT (1.5x)” value was 0.76 µM.

Consider `CC1(C)CC1CC(C(=O)Nc1ccc(C(=O)O)cc1)c1ccc(-c2c(OC(F)F)ccc(Cl)c2F)c[n+]1[O-]` (single isomer, unassigned) [Example 112, 2-(1-((4-carboxyphenyl)amino)-3-(2,2-dimethylcyclopropyl)-1-oxopropan-2-yl)-5-(3-chloro-6-(difluoromethoxy)-2-fluorophenyl)pyridine 1-oxide], for which the IC50 on human Factor XIa turned out to be 0.4 nM; at Human plasma kallikrein it was 21.3 nM. Also, in assay [1], the “aPTT (1.5x)” value was 2.21 µM.
